From ChEMBL document CHEMBL4507277

Columns and labels:
[1] = tested on: Tyrosine-protein kinase ABL1 (Homo sapiens), P00519 [H396P]; conditions: Compound concentration 1000.0 nM
[2] = tested on: Tyrosine-protein kinase ABL1 (Homo sapiens), P00519 [Q252H]; conditions: Compound concentration 1000.0 nM
[3] = target: Mitotic checkpoint serine/threonine-protein kinase BUB1 (Homo sapiens) (UniProt O43683); conditions: Compound concentration 1000.0 nM
[4] = target: Calcium/calmodulin-dependent protein kinase type 1B (Homo sapiens) (UniProt Q6P2M8); conditions: Compound concentration 1000.0 nM
Calcium/calmodulin-dependent protein kinase type 1B (Homo sapiens), sequence (Q6P2M8 whole entry): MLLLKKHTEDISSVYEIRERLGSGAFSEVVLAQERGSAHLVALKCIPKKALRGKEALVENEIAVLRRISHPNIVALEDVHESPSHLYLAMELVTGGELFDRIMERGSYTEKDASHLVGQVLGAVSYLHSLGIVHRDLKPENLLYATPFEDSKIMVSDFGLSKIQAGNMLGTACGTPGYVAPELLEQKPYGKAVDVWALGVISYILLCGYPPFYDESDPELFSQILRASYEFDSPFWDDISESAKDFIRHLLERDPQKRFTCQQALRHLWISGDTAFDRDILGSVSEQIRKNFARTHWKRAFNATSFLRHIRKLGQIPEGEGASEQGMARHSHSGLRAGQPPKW

[5] = target: Cyclin-dependent kinase 4 (Homo sapiens) (UniProt P11802); conditions: Compound concentration 1000.0 nM
Cyclin-dependent kinase 4 (Homo sapiens), sequence (P11802 whole entry): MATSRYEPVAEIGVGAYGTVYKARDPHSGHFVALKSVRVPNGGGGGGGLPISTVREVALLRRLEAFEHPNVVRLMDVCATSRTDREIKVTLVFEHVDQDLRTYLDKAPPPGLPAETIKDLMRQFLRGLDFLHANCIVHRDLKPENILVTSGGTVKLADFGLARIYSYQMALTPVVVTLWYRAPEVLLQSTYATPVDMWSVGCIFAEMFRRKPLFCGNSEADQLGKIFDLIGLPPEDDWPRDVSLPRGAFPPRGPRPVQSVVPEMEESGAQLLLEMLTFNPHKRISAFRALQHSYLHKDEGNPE

[6] = target: Cyclin-dependent kinase 4 (Homo sapiens) (UniProt P11802); conditions: Compound concentration 1000.0 nM; remark: listed apart in the source
[7] = target: Cyclin-dependent kinase 9 (Homo sapiens) (UniProt P50750); conditions: Compound concentration 1000.0 nM
[8] = target: Megakaryocyte-associated tyrosine-protein kinase (Homo sapiens) (UniProt P42679); conditions: Compound concentration 1000.0 nM
Megakaryocyte-associated tyrosine-protein kinase (Homo sapiens), sequence (P42679 whole entry): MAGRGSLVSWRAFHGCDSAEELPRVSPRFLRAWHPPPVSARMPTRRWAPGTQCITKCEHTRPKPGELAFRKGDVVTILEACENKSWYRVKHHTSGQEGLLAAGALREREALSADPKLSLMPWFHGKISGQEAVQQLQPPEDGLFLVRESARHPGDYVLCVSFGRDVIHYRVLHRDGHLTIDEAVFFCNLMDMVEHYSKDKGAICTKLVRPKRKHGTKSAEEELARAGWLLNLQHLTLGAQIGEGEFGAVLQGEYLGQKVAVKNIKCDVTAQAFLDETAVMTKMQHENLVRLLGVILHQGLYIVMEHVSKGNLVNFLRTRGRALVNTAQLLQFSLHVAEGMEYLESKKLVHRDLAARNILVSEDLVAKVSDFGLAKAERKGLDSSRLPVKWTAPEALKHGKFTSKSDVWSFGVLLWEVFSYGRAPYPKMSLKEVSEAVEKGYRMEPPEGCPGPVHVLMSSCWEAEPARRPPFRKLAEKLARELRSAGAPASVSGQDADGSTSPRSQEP

[9] = tested on: Epidermal growth factor receptor (Homo sapiens), P00533 [UNDEFINED MUTATION]; conditions: Compound concentration 1000.0 nM
Epidermal growth factor receptor (Homo sapiens), P00533 [UNDEFINED MUTATION], sequence (P00533 whole entry, looked up, change not shown): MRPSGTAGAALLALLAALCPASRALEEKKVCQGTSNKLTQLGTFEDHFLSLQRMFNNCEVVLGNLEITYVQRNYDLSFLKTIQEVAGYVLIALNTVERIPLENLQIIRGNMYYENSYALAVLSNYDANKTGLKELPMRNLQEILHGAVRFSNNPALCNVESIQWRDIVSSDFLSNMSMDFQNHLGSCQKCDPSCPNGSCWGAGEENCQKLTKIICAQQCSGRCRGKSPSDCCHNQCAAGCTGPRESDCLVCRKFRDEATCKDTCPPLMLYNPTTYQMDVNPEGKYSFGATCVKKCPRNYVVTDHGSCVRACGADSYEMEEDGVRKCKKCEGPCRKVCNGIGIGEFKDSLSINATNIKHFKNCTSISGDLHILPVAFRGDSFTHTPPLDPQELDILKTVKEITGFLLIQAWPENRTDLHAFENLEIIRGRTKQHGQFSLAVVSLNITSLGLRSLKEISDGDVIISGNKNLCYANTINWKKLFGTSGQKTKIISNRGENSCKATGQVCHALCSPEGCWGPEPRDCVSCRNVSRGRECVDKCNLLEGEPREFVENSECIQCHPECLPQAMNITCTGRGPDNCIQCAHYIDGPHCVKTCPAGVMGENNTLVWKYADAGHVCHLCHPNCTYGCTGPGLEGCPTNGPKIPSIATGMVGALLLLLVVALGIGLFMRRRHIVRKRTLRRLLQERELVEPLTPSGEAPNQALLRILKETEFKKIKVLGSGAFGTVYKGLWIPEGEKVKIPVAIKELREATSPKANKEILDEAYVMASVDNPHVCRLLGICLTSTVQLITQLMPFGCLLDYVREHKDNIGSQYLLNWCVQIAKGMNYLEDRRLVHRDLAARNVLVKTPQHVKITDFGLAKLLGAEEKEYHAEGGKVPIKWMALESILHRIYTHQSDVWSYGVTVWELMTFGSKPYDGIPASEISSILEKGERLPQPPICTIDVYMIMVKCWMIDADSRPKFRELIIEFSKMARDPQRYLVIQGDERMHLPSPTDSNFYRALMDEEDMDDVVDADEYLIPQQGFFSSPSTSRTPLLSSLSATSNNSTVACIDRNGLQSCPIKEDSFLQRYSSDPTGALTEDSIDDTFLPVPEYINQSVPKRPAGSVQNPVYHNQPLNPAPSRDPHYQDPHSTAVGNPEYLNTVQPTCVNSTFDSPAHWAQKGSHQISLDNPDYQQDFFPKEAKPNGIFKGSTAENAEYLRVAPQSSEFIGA

[10] = target: Eukaryotic translation initiation factor 2-alpha kinase 1 (Homo sapiens) (UniProt Q9BQI3); conditions: Compound concentration 1000.0 nM
[11] = target: Ephrin type-A receptor 3 (Homo sapiens) (UniProt P29320); conditions: Compound concentration 1000.0 nM
[12] = target: Ephrin type-A receptor 8 (Homo sapiens) (UniProt P29322); conditions: Compound concentration 1000.0 nM
[13] = target: Receptor tyrosine-protein kinase erbB-3 (Homo sapiens) (UniProt P21860); conditions: Compound concentration 1000.0 nM
[14] = target: Tyrosine-protein kinase Fes/Fps (Homo sapiens) (UniProt P07332); conditions: Compound concentration 1000.0 nM
[15] = target: Fibroblast growth factor receptor 1 (Homo sapiens) (UniProt P11362); conditions: Compound concentration 1000.0 nM
[16] = target: Receptor-type tyrosine-protein kinase FLT3 (Homo sapiens) (UniProt P36888); conditions: Compound concentration 1000.0 nM
[17] = tested on: Receptor-type tyrosine-protein kinase FLT3 (Homo sapiens), P36888 [D835V]; conditions: Compound concentration 1000.0 nM
[18] = tested on: Receptor-type tyrosine-protein kinase FLT3 (Homo sapiens), P36888 [D835Y]; conditions: Compound concentration 1000.0 nM
[19] = tested on: Receptor-type tyrosine-protein kinase FLT3 (Homo sapiens), P36888 [UNDEFINED MUTATION]; conditions: Compound concentration 1000.0 nM
[20] = target: G protein-coupled receptor kinase 4 (Homo sapiens) (UniProt P32298); conditions: Compound concentration 1000.0 nM
[21] = target: Serine/threonine-protein kinase ICK (Homo sapiens) (UniProt Q9UPZ9); conditions: Compound concentration 1000.0 nM
[22] = target: Inhibitor of nuclear factor kappa-B kinase subunit beta (Homo sapiens) (UniProt O14920); conditions: Compound concentration 1000.0 nM
[23] = target: Serine/threonine-protein kinase LATS2 (Homo sapiens) (UniProt Q9NRM7); conditions: Compound concentration 1000.0 nM
[24] = tested on: Leucine-rich repeat serine/threonine-protein kinase 2 (Homo sapiens), Q5S007 [G2019S]; conditions: Compound concentration 1000.0 nM
[25] = target: Mitogen-activated protein kinase kinase kinase 2 (Homo sapiens) (UniProt Q9Y2U5); conditions: Compound concentration 1000.0 nM
[26] = tested on: Hepatocyte growth factor receptor (Homo sapiens), P08581 [M1250T]; conditions: Compound concentration 1000.0 nM
[27] = target: Mitogen-activated protein kinase kinase kinase 9 (Homo sapiens) (UniProt P80192); conditions: Compound concentration 1000.0 nM
[28] = target: Mitogen-activated protein kinase kinase kinase 10 (Homo sapiens) (UniProt Q02779); conditions: Compound concentration 1000.0 nM
[29] = target: Myosin-IIIa (Homo sapiens) (UniProt Q8NEV4); conditions: Compound concentration 1000.0 nM
[30] = target: Serine/threonine-protein kinase Nek7 (Homo sapiens) (UniProt Q8TDX7); conditions: Compound concentration 1000.0 nM
[31] = target: Serine/threonine-protein kinase NLK (Homo sapiens) (UniProt Q9UBE8); conditions: Compound concentration 1000.0 nM
Serine/threonine-protein kinase NLK (Homo sapiens), sequence (Q9UBE8 whole entry): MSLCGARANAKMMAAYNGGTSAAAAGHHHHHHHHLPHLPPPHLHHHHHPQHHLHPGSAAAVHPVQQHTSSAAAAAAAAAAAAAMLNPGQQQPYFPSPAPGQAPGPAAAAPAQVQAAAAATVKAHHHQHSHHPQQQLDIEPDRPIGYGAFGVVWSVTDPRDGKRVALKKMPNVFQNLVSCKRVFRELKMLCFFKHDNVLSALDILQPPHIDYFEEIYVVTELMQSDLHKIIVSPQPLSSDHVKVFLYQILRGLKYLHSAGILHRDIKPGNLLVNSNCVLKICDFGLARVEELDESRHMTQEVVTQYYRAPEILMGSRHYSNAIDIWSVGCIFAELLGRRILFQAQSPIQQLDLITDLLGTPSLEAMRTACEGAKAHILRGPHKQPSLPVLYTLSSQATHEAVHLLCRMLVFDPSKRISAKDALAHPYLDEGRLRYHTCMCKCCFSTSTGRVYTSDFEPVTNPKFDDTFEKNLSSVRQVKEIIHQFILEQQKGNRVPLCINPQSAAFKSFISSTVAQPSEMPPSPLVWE

[32] = target: Serine/threonine-protein kinase PAK 1 (Homo sapiens) (UniProt Q13153); conditions: Compound concentration 1000.0 nM
Serine/threonine-protein kinase PAK 1 (Homo sapiens), sequence (Q13153 whole entry): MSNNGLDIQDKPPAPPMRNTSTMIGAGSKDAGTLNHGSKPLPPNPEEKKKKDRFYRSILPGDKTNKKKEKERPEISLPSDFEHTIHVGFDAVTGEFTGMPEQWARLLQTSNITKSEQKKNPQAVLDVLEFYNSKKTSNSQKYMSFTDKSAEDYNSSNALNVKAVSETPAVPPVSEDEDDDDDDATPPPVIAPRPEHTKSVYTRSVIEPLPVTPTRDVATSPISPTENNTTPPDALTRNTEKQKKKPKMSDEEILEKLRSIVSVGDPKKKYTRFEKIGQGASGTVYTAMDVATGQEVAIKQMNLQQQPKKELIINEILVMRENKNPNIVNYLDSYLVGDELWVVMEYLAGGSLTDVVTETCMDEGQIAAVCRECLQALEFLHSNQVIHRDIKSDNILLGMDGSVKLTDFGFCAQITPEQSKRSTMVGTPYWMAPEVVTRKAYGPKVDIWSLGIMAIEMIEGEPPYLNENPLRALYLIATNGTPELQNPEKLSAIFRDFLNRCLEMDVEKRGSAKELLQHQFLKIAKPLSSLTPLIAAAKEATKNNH

[33] = target: Phosphatidylinositol 5-phosphate 4-kinase type-2 beta (Homo sapiens) (UniProt P78356); conditions: Compound concentration 1000.0 nM
[34] = target: cAMP-dependent protein kinase catalytic subunit PRKX (Homo sapiens) (UniProt P51817); conditions: Compound concentration 1000.0 nM
[35] = target: Receptor-interacting serine/threonine-protein kinase 4 (Homo sapiens) (UniProt P57078); conditions: Compound concentration 1000.0 nM
[36] = target: Ribosomal protein S6 kinase alpha-4 (Homo sapiens) (UniProt O75676); conditions: Compound concentration 1000.0 nM
[37] = target: Ribosomal protein S6 kinase alpha-3 (Homo sapiens) (UniProt P51812); conditions: Compound concentration 1000.0 nM
[38] = target: Ribosomal protein S6 kinase beta-1 (Homo sapiens) (UniProt P23443); conditions: Compound concentration 1000.0 nM
[39] = target: Activated CDC42 kinase 1 (Homo sapiens) (UniProt Q07912); conditions: Compound concentration 1000.0 nM
[40] = target: Tyrosine-protein kinase TXK (Homo sapiens) (UniProt P42681); conditions: Compound concentration 1000.0 nM
Tyrosine-protein kinase TXK (Homo sapiens), sequence (P42681 whole entry): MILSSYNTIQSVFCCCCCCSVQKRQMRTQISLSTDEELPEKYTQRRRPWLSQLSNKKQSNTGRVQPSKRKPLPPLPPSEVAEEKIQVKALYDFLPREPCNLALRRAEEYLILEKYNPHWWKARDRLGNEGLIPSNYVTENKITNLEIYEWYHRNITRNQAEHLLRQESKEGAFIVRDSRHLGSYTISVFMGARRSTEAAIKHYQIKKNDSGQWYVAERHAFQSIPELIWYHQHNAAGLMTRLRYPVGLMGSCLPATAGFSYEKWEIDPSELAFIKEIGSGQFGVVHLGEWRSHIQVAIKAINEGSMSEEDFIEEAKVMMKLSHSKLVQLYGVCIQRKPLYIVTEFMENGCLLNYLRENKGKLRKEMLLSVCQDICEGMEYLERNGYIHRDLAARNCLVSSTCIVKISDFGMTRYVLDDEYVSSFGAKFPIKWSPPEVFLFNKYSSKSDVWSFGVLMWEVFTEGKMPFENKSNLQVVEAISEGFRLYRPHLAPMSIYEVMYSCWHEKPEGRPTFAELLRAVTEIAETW

[41] = target: Serine/threonine-protein kinase 25 (Homo sapiens) (UniProt O00506); conditions: Compound concentration 1000.0 nM
[42] = target: Mitogen-activated protein kinase kinase kinase 20 (Homo sapiens) (UniProt Q9NYL2); conditions: Compound concentration 1000.0 nM
[43] = target: Tyrosine-protein kinase ZAP-70 (Homo sapiens) (UniProt P43403); conditions: Compound concentration 1000.0 nM
[44] = target: Histamine H3 receptor (Homo sapiens) (UniProt Q9Y5N1); conditions: Compound concentration 10.0 uM
[45] = target: Histamine H4 receptor (Homo sapiens) (UniProt Q9H3N8); conditions: Compound concentration 10.0 uM

Mitotic checkpoint serine/threonine-protein kinase BUB1 (Homo sapiens), sequence (O43683 whole entry, looked up): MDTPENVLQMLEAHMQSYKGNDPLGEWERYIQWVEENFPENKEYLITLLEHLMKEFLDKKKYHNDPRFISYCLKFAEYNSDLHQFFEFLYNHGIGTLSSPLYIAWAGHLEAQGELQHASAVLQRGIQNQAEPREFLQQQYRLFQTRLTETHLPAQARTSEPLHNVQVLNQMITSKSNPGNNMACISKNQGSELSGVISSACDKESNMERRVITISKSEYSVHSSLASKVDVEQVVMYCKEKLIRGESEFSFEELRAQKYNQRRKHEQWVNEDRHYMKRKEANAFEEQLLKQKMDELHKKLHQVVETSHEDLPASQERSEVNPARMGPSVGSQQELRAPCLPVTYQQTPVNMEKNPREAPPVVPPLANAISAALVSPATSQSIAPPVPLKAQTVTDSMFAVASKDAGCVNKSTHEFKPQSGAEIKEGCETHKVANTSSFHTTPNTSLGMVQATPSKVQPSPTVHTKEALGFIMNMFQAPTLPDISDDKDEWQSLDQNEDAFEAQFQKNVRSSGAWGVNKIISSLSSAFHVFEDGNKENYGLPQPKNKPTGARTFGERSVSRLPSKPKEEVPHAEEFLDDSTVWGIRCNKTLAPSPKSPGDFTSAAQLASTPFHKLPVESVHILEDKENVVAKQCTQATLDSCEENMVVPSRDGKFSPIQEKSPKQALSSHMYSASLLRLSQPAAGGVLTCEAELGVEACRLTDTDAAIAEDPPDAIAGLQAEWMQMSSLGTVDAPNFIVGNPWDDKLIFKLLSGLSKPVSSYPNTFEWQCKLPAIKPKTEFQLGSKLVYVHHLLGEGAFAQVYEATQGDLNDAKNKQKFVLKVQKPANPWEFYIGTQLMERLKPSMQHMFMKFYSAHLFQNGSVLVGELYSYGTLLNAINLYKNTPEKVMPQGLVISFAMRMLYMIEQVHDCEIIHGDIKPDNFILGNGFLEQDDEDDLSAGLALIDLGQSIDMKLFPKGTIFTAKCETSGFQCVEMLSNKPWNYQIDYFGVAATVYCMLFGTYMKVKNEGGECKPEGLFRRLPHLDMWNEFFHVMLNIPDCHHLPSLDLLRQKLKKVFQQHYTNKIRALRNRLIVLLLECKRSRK

CCS(=O)(=O)c1cc2cc(C[C@](O)(CC(C)(C)c3ccc(F)cc3C(N)=O)C(F)(F)F)[nH]c2cn1
residual activity [1]: 100%
residual activity [2]: 100%
residual activity [3]: 86%
residual activity [4]: 77%
residual activity [5]: 100%
residual activity [6]: 96%
residual activity [7]: 100%
residual activity [8]: 100%
residual activity [9]: 100%
residual activity [10]: 100%
residual activity [11]: 95%
residual activity [12]: 82%
residual activity [13]: 100%
residual activity [14]: 100%
residual activity [15]: 94%
residual activity [16]: 87%
residual activity [17]: 95%
residual activity [18]: 100%
residual activity [19]: 95%
residual activity [20]: 100%
residual activity [21]: 100%
residual activity [22]: 91%
residual activity [23]: 40%
residual activity [24]: 100%
residual activity [25]: 100%
residual activity [26]: 100%
residual activity [27]: 98%
residual activity [28]: 100%
residual activity [29]: 94%
residual activity [30]: 100%
residual activity [31]: 100%
residual activity [32]: 95%
residual activity [33]: 96%
residual activity [34]: 100%
residual activity [35]: 93%
residual activity [36]: 94%
residual activity [37]: 100%
residual activity [38]: 82%
residual activity [39]: 100%
residual activity [40]: 90%
residual activity [41]: 86%
residual activity [42]: 87%
residual activity [43]: 71%
inhibition [44]: 11.7%
inhibition [45]: 3.88%

CCS(=O)(=O)c1cc2cc(C[C@@](O)(CC(C)(C)c3ccc(F)cc3C(N)=O)C(F)(F)F)[nH]c2cn1
residual activity [1]: 99%
residual activity [2]: 79%
residual activity [3]: 66%
residual activity [4]: 85%
residual activity [5]: 81%
residual activity [6]: 97%
residual activity [7]: 78%
residual activity [8]: 100%
residual activity [9]: 93%
residual activity [10]: 80%
residual activity [11]: 85%
residual activity [12]: 100%
residual activity [13]: 100%
residual activity [14]: 100%
residual activity [15]: 95%
residual activity [16]: 97%
residual activity [17]: 79%
residual activity [18]: 99%
residual activity [19]: 86%
residual activity [20]: 100%
residual activity [21]: 97%
residual activity [22]: 83%
residual activity [23]: 100%
residual activity [24]: 100%
residual activity [25]: 100%
residual activity [26]: 90%
residual activity [27]: 96%
residual activity [28]: 65%
residual activity [29]: 80%
residual activity [30]: 95%
residual activity [31]: 100%
residual activity [32]: 100%
residual activity [33]: 85%
residual activity [34]: 77%
residual activity [35]: 100%
residual activity [36]: 71%
residual activity [37]: 100%
residual activity [38]: 80%
residual activity [39]: 100%
residual activity [40]: 97%
residual activity [41]: 87%
residual activity [42]: 100%
residual activity [43]: 72%
inhibition [44]: 11.7%
inhibition [45]: 2.05%
